Assay [1] addresses Serine/threonine-protein kinase 33 (Homo sapiens) (UniProt Q9BYT3). The experiment in a line: Selectivity interaction (KinomeScan (DiscoverX)) EUB0000092b STK33. To be noted: at 10 µM.
For assay [2], the target named is Calcium/calmodulin-dependent protein kinase kinase 1 (Homo sapiens) (UniProt Q8N5S9). The experiment in a line: Selectivity interaction (KinomeScan (DiscoverX)) EUB0000092b CAMKK1. The following applies: at 10 µM.
Assay [3] deals with T1, Serine/threonine-protein kinase ULK2 (Homo sapiens) (UniProt Q8IYT8).
T1 sequence (whole entry): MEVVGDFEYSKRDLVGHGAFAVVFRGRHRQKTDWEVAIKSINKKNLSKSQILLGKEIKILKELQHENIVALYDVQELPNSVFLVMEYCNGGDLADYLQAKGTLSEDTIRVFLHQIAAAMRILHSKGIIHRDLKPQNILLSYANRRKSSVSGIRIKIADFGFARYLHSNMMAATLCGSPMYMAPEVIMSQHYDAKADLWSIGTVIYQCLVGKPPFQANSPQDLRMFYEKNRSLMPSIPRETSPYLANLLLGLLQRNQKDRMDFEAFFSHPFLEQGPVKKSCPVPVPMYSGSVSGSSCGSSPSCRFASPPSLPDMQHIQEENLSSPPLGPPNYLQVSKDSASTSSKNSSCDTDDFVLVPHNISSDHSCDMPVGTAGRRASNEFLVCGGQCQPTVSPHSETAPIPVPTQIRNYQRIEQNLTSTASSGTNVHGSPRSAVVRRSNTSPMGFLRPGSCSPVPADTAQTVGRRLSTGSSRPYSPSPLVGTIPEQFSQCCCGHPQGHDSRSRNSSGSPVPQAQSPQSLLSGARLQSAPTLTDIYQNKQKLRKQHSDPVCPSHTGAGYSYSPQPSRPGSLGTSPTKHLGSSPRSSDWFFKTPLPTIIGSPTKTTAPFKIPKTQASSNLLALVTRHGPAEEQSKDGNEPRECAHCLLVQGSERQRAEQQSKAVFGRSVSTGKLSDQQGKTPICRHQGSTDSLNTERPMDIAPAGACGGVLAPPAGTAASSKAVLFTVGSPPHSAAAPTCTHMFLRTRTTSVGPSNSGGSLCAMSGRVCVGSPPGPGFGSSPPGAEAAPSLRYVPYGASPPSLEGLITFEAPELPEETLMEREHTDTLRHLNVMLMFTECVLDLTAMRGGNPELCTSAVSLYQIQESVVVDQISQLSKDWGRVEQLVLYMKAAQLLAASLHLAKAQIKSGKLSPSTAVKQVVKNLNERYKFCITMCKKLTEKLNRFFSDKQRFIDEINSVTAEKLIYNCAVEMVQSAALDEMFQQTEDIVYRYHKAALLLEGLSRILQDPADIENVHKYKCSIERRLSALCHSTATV
The experiment in a line: Selectivity interaction (KinomeScan (DiscoverX)) EUB0000655a ULK2. The following applies: at 10 µM.

The target of assay [4] is Ribosomal protein S6 kinase alpha-3 (Homo sapiens, UniProt P51812). The experiment in a line: Selectivity interaction (KinomeScan (DiscoverX)) EUB0000695a RPS6KA3. To be noted: at 100 nM.
Sequence of Ribosomal protein S6 kinase alpha-3 (P51812 whole entry): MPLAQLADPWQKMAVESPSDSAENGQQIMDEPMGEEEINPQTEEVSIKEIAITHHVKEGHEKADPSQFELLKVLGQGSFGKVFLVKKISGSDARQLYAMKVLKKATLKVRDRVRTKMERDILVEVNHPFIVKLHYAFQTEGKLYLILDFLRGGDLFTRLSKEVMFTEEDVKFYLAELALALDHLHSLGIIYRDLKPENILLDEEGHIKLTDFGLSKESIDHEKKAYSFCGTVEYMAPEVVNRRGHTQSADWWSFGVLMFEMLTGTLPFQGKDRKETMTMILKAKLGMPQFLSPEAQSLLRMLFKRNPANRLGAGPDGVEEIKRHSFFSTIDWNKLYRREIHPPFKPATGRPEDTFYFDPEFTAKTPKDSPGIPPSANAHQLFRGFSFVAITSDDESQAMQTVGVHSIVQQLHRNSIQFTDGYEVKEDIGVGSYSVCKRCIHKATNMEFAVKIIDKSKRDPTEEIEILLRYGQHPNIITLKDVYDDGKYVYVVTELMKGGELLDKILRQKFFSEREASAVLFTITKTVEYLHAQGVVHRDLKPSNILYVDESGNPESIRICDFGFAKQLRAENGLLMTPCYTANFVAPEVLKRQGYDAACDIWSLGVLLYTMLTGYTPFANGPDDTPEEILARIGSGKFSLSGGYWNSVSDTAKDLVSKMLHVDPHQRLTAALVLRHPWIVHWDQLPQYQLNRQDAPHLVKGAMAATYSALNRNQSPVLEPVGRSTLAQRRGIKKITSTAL
Assay [5] concerns the target Chromatin remodeling regulator CECR2 (Homo sapiens, UniProt Q9BXF3). The experiment in a line: Selectivity interaction (Bromodomain panel (DSF asssay)) EUB0000270b CECR2.
Assay [6] has as its target T2, Peregrin (Homo sapiens) (UniProt P55201).
T2 sequence (whole entry): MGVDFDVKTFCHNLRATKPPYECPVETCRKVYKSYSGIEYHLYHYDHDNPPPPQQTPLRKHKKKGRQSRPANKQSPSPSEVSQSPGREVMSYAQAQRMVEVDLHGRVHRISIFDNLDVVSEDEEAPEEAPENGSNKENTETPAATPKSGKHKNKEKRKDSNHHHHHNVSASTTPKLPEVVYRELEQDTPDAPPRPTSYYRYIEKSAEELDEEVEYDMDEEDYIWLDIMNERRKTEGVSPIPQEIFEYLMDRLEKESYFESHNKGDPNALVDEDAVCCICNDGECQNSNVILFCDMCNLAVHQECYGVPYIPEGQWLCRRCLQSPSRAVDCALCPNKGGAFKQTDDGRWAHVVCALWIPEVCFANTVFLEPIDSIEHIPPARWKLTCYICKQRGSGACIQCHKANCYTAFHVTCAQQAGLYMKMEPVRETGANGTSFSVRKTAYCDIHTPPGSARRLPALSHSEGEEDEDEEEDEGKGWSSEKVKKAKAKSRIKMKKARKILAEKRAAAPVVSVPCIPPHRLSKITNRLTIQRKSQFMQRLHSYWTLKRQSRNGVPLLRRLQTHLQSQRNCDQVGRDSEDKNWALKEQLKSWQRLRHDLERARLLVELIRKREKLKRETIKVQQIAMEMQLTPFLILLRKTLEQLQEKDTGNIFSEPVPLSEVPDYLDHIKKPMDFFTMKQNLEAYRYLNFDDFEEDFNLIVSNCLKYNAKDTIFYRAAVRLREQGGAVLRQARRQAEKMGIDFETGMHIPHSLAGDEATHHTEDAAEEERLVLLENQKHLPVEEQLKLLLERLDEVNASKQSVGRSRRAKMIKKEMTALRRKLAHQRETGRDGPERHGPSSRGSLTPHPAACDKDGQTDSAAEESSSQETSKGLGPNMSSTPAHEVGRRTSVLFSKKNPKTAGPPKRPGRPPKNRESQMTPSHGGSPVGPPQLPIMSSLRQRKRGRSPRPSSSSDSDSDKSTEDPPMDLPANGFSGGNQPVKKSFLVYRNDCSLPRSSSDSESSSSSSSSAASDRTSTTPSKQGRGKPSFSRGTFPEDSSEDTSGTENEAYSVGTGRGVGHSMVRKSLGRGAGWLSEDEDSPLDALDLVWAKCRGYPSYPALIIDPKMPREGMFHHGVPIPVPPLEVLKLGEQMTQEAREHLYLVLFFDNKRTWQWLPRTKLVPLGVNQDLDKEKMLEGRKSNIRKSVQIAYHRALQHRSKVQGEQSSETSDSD
The experiment in a line: Selectivity interaction (PWWP, WD40, and Tudor domain panel (DSLS measurements, literature)) EUB0000270b BRPF1.

For assay [7], the target named is Tyrosine-protein kinase HCK (Homo sapiens) (UniProt P08631). The experiment in a line: Selectivity interaction (Kinase panel (Invitrogen)) EUB0000639a HCK. The following applies: at 200 nM.
Sequence of Tyrosine-protein kinase HCK (Homo sapiens) (P08631 2-526 limits assumed): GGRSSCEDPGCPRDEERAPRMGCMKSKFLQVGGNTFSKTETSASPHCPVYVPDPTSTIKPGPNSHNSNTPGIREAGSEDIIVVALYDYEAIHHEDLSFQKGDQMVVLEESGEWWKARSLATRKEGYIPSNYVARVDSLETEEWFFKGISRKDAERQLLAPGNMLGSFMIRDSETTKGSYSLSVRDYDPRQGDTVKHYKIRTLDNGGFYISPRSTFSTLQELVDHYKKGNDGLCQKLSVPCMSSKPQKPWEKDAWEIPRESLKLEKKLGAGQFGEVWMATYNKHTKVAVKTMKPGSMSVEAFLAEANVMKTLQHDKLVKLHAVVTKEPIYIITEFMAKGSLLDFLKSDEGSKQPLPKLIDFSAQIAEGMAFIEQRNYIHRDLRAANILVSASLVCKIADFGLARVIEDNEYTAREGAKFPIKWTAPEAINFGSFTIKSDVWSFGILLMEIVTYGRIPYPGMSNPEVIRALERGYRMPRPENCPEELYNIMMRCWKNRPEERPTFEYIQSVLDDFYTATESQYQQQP

Sequence of Calcium/calmodulin-dependent protein kinase kinase 1 (Homo sapiens) (Q8N5S9 whole entry, looked up): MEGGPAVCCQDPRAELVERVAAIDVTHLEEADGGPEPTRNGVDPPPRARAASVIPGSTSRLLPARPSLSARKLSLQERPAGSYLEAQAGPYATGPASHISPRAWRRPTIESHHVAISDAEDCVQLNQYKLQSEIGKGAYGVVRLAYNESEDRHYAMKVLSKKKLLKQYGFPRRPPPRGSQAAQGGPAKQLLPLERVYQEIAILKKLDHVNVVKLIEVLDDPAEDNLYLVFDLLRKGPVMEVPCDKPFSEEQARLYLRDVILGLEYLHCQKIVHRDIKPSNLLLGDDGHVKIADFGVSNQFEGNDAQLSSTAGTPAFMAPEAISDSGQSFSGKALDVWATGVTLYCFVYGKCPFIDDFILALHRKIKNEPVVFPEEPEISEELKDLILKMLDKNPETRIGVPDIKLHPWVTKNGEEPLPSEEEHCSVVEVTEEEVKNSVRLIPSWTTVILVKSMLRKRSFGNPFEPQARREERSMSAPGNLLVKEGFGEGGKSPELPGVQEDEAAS
Sequence of Chromatin remodeling regulator CECR2 (Q9BXF3 whole entry, looked up): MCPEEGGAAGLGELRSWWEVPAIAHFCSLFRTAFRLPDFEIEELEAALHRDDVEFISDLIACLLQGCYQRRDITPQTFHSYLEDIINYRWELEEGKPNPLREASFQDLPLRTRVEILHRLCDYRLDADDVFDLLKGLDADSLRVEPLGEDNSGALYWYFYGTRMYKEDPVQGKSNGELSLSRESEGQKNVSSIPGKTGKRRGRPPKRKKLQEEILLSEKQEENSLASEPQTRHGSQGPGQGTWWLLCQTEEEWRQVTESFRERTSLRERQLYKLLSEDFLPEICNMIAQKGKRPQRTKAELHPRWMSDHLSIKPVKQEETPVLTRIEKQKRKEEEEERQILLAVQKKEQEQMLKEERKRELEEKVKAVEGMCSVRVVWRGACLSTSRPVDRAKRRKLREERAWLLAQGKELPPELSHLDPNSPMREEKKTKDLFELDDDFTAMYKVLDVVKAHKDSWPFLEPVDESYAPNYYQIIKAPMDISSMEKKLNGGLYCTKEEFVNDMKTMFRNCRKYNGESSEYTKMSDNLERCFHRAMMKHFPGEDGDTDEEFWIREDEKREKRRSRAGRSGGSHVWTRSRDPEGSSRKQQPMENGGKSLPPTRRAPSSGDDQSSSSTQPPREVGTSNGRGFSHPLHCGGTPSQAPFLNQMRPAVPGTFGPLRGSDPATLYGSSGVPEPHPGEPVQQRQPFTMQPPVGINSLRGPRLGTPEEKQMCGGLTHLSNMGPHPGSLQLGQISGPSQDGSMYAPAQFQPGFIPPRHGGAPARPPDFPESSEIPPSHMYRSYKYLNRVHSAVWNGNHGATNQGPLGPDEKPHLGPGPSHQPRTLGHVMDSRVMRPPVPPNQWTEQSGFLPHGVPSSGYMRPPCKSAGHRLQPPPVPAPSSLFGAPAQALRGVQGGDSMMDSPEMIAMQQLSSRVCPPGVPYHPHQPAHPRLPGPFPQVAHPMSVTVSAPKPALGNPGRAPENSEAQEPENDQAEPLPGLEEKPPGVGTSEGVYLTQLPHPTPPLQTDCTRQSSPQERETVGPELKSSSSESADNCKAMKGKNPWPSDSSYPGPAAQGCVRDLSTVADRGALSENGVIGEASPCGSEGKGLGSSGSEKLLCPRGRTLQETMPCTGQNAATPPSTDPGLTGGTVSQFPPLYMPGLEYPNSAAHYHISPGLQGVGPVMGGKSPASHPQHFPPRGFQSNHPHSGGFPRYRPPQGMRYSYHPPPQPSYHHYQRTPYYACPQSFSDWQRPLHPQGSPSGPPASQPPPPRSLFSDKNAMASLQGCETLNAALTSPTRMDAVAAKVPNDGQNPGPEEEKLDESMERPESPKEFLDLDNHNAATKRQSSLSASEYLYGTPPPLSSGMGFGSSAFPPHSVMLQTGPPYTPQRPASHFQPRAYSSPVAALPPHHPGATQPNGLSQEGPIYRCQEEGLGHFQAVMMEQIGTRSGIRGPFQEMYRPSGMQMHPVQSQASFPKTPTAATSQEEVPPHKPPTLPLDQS
Sequence of Serine/threonine-protein kinase 33 (Homo sapiens) (Q9BYT3 whole entry, looked up): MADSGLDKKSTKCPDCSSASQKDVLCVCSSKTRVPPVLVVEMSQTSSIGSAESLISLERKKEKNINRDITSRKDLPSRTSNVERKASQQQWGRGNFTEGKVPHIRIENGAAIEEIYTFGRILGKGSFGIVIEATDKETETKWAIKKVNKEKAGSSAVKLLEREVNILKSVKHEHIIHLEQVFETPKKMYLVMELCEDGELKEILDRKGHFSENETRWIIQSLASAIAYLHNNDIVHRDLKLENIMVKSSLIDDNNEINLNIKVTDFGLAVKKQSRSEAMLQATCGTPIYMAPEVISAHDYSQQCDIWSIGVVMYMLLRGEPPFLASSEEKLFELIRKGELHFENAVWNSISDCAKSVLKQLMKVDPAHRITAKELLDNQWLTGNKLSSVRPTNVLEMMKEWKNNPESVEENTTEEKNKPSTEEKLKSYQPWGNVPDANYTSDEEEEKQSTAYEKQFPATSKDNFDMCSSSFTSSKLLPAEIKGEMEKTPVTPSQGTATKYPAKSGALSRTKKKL

Turning to `CCC(=O)N1CCN(c2ccc(-n3c(=O)ccc4cnc5ccc(-c6cnc7ccccc7c6)cc5c43)cc2C(F)(F)F)CC1`, the % of control stood at 90% in assay [1] and 80% in assay [2].
Compound `CN(C)CCOc1ccc(-c2nc(-c3ccncc3)c(-c3ccc4c(c3)CC/C4=N\O)[nH]2)cc1` had a % of control in assay [3] of 90%.
With `Cc1cc(F)c(C(=O)Nc2cccc(-c3nncn3C(C)C)n2)cc1-n1cnc(C2CC2)c1`, in assay [4], the % of control was found to be 98%.
Consider `Cc1cc(CN)cc(C)c1-c1ncn(C)c1-c1cncn1C`, for which the dTM in assay [5] is -0.68 K. Further, the dTagg in assay [6] came out at 0 K.
In assay [7], `CC[C@@H]1[C@H](F)C(=O)N[C@@H]1COc1nccc2cc(C(N)=O)c(OC)cc12` [ZIMLOVISERTIB] displayed a % of inhibition of 4.23%.
